Entries after “also recorded” stand apart in the source; their conditions may differ.
Experiments:
DIO mice [1] = assay: Chronic treatment of DIO mice (body weight, food intake, DEXA, glucose homeostasis); assay type: in vivo; settings: for body weight: 3 weeks i.p., ricolinostat 50 mg/kg, bavarostat 10 mg/kg, citarinostat 25 mg/kg; for food intake: 3 weeks treatment
Description: DIO mice were treated with ACY775 (10 mg/kg/day, i.p.) for 3 weeks. Daily body weight (g) of DIO mice treated with vehicle (n=17) or ACY775 (n=17) during 3 weeks of treatment was determined. Daily food intake (g) during 3 weeks of vehicle or ACY775 treatment was assessed. 24 hours' food intake per mouse during the first week of vehicle or ACY775 treatment was determined. Serum leptin (ng/ml) levels after 3 weeks of vehicle (n=24) or ACY775 (n=24) treatment was assessed. Lean mass (g), fat mass (g) and fat percentage (%) after 3 weeks of vehicle (n=17) or ACY775 (n=17) treatment measured by Dual-energy X-ray absorptiometry (DEXA) scan. DEXA scans were performed in two different cohorts. Glucose tolerance test (GTT) after 1 week of vehicle (n=33) or ACY775 (n=26) treated DIO mice was assessed. Area of curve (AOC) analysis for GTT was performed. Blood glucose (mg/dl) levels after 1 week of vehicle (n=17) or ACY775 (n=16) were assessed in treated DIO mice. Insulin tolerance test (ITT) was performed after 2 weeks of vehicle (n=31) or ACY775 (n=21) treatment of DIO mice. Serum insulin (ng/ml) levels were measured after 3 weeks of vehicle (n=22) or ACY775 (n=21) in treated DIO mice. A homeostatic model assessment of insulin resistance (HOMA-IR) was analyzed after 3 weeks of vehicle (n=14) or ACY775 (n=13) treated DIO mice.
Food intake was analyzed hourly until 3:00 am. […] DEXA scans were performed in two different cohorts.
DIO mice then were treated with ricolinostat (50 mg/kg, i.p.) for 3 weeks. Daily body weight (g), daily food intake (g), serum leptin (ng/ml) levels after 3 weeks of vehicle (n-8) or ricolinostat (n=8) treatment, lean mass (g); fat mass and fat percentage (%) after 3 weeks of vehicle (n=16) or ricolinostat (n=17) treatment measured by DEXA scan were determined.
Blood glucose (mg/dl) levels were measured after 1 week of vehicle (n=16) or ricolinostat (n=16) treated DIO mice. GTT after 1 week of vehicle (n=17) or ricolinostat (n=16) treatment of DIO mice was assessed. AOC analysis for GTT was performed. ITT after 2 weeks of vehicle (n=17) or ricolinostat (n=16) treated DIO mice was measured. Serum insulin (ng/ml) levels after 3 weeks of vehicle (n=8) or ricolinostat (n=8) treatment were measured in DIO mice. Liver sections from 3 weeks of vehicle or ricolinostat treated DIO mice were stained by H&E.
DIO mice then were treated with bavarostat (10 mg/kg, i.p.) for 3 weeks and daily body weight (g) of DIO mice treated with Veh (n=9) or bavarostat (n=9) measured during the three weeks of treatment period. Daily food intake (g) during 3 weeks of Veh or bavarostat treatment was also measured.
ACY1083 was administered to DIO mice as described in Example 3.

HDAC6 [2] = molecular target: HDAC6 (Mus musculus (Mouse), UniProt Q9Z2V5); assay: Ac-tubulin immunoblotting of tissues (HDAC6 inhibition in hypothalamus and brain regions); assay type: in vivo, mice; settings: for HDAC6 inhibition in other brain regions: cerebrum, frontal lobe, temporal lobe, brainstem; for HDAC6 inhibition in the hypothalamus: mouse, in vivo
Chain of HDAC6 (Mus musculus (Mouse), UniProt Q9Z2V5) (Q9Z2V5 whole entry): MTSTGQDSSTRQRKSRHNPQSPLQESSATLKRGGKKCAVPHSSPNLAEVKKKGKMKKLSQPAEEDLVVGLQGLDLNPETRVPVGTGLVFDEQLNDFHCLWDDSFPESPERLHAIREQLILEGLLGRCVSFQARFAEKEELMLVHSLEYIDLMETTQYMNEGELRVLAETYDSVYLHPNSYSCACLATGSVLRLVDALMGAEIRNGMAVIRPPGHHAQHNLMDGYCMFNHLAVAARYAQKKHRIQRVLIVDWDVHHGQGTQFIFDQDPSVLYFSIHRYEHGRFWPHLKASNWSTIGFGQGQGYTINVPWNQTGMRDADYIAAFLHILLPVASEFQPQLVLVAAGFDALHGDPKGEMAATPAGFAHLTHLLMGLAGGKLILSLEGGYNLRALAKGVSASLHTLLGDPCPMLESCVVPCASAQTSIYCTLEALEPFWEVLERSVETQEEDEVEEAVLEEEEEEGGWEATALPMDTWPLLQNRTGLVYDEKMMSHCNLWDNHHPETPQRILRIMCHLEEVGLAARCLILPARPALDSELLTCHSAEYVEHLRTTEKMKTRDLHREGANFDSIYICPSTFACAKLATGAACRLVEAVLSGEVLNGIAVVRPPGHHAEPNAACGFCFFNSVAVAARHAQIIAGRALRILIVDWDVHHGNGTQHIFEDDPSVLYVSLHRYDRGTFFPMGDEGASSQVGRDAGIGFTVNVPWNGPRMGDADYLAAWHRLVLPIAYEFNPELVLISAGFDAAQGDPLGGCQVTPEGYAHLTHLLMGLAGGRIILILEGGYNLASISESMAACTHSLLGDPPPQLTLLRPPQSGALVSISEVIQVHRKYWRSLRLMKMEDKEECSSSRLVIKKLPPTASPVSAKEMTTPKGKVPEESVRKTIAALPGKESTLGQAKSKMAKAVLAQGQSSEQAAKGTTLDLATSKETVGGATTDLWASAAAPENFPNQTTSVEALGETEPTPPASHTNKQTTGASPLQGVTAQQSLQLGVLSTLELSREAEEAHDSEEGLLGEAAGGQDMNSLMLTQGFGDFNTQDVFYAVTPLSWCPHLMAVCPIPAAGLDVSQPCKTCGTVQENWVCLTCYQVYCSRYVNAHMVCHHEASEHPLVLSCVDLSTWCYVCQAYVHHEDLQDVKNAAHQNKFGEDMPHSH

[3] = tested on: ACY775-responsive DMH neurons; assay: Chemogenetic (hM3Dq) activation of ACY775-responsive DMH neurons; assay type: in vivo; settings: ACY775-induced hM3Dq TRAP2 DIO mice
Description: Next, the ACY775-responsive DMH neurons were chemogenically activated to investigate whether activation of these neurons would be sufficient to reduce the food intake and the bodyweight. Adeno-associated virus (AAV) carrying Cre-dependent hM3Dq-DREADD fused to mCherry transgene (AAV-DIO-hM3Dq-mCherry) was injected bilaterally into the DMH of TRAP2 DIO mice. Four weeks after injections, a single dose of ACY775 (10 mg/kg, i.p.) or vehicle was injected to induce c-fos expression. Subsequently, 4-OHT injection was performed after 5 h to activate c-fos driven Cre in the fasted DIO mice. The mCherry signal was expressed only in ACY775-treated TRAP2 DIO mice and was absent in vehicle-treated TRAP2 DIO mice.
Next, both AAV-DIO-hM3Dq-mCherry- and ACY775-injected, and vehicle-treated TRAP2 DIO mice with saline were treated for 3 days and with clozapine N-oxide (CNO) for 4 days. […] The blood glucose levels at the end of saline and CNO treatment was also measured. […] Blood glucose lowering effect of CNO was absent compared in Veh-induced TRAP2 DIO mice and in all the saline-treated mice.

[4] = Brain/plasma ratio and brain or hypothalamus penetration; settings: in vivo
[5] = in vivo; cited from earlier work
HDAC6-KO DIO mice = assay: Chronic treatment of DIO WT versus HDAC6 KO mice; assay type: in vivo; settings: DIO mice, 3 weeks; ACY775 10, ACY738 50, Tubastatin A 25 mg/kg/day i.p.
p-STAT3^Tyr705 = assay: Leptin-stimulated hypothalamic STAT3 Tyr705 phosphorylation in DIO mice; assay type: in vivo; settings: 45 minutes after leptin 1 mg/kg i.p.
Description: DIO mice were pretreated with ACY775 (10 mg/kg/day, i.p.) or vehicle for 3 days, which was followed by a last injection of ACY775 (or vehicle) in the morning of fourth day. 6 hours later mice were injected with saline or leptin (1 mg/kg, i.p.) and hypothalamus were extracted after 45 minutes following the leptin injection. Representative immunoblots for STAT3^Tyr705 phosphorylation and total STAT3 from the hypothalamus. Quantification of the ratio of p-STAT3^Tyr705 to total-STAT3 signal in the immunoblots. The results were reproduced in three independent experiments. The results were analyzed hourly.
DIO mice were pretreated with ACY775 (10 mg/kg/day, i.p.) or vehicle for 3 days, which was followed by a last injection of ACY775 (or vehicle) in the morning of fourth day. 6 hours later mice were injected with saline or leptin (1 mg/kg, i.p.) and the hypothalamus were extracted after 45 minutes following the leptin injection.
6 hours later mice were injected with saline or leptin (1 mg/kg, i.p.) and hypothalamus were extracted after 45 minutes following the leptin injection. Immunoblots for STAT3^Tyr705 phosphorylation and total STAT3 from the hypothalamus were made to quantify the ratio of p-STAT3^Tyr705 to total-STAT3 signal in the immunoblots. The results were reproduced in two independent experiments.
DIO mice were pretreated with ricolinostat (50 mg/kg/day, i.p.) or vehicle 3 days, which was followed by a last injection of ricolinostat (or vehicle) in the morning of fourth day. 6 hours later mice were injected with saline or leptin (1 mg/kg, i.p.) and the hypothalamus were extracted after 45 minutes following the leptin injection. Immunoblots were performed for STAT3^Tyr705 phosphorylation and total STAT3 from the hypothalamus. The ratio of p-STAT3^Tyr705 to total STAT3 signal in the immunoblots was quantified.

HDAC6 [6] = assay: Ac-tubulin immunoblotting in HEK293 cells; assay type: cell-based
DIO mice [7] = assay: Acute leptin co-treatment in DIO mice (body weight, food intake 15 h); assay type: in vivo; settings: for body weight, agent alone: ACY775 10 mg/kg, ricolinostat 25 mg/kg
Description: DIO mice were pretreated with ACY775 (10 mg/kg/day, i.p.) or vehicle for 3 days, which was followed by co-treatment with ACY775 (or vehicle) and leptin (1 mg/kg, i.p.) (or saline) (n=9 for each group), % change in body weight 15 h after leptin treatment, food intake (g) during the 15 h period after leptin treatment. The results in were reproduced in two independent experiments.
Diet induced obese (DIO) mice were pretreated with ACY775 (10 mg/kg/day, i.p.) or vehicle for 3 days, which was followed by co-treatment with ACY775 (or vehicle) and leptin (1 mg/kg, i.p.) (or saline) (n=9 for each group). Mice were evaluated for % change in body weight 15 h after leptin treatment, and food intake (g) during the 15 h period after leptin treatment.
DIO mice were pretreated with ricolinostat (25 mg/kg/day, i.p.) or vehicle for 3 days, which was followed by co-treatment with ricolinostat (or vehicle) and leptin (1 mg/kg, i.p.) (or saline) (n=32 for each group). Change in body weight 15 h after leptin treatment, and food intake (g) during the 15 h period after leptin treatment were determined. The results were reproduced in two independent experiments.

Compound | body weight (DIO mice [1]; DIO mice) | HDAC6 inhibition in other brain regions (HDAC6 [2]) | penetrance into the hypothalamus [4] | food intake (DIO mice [1]; DIO mice) | brain penetrance / BBB permeability [5] | leptin-stimulated hypothalamic p-STAT3^Tyr705 (p-STAT3^Tyr705) | body weight, agent alone (DIO mice [7]; 15 h, leptin 1 mg/kg i.p.) | food intake, agent alone (DIO mice [7]; 15 h period) | other results
CC1CCC(C(C)(C2CCC(C)CC2)C2CCC(C(C)C(C)CCCCC(C)C(C)C)CC2)CC1 (stereo not drawn) [ACY257] | as effective as ACY775 in reducing body weight | does not inhibit HDAC6 in other brain regions |  |  |  |  |  |  | 
C[N+]1([O-])CCN(C2=Nc3cc(Cl)ccc3Nc3ccccc32)CC1 [CNO, clozapine N-oxide] |  |  |  |  |  |  |  |  | blood glucose levels [3]: significantly decreased blood glucose levels; bodyweight and food intake ([3]; CNO 4 days): significant reduction in bodyweight and food intake
CN(Cc1ccc(C(=O)NO)cc1F)CC12CC3CC(CC(C3)C1)C2 [bavarostat, 4-(((((3r,5r,7r)-adamantan-1-yl)methyl)(methyl)amino)methyl)-3-fluoro-N-hydroxybenzamide] | statistically significantly effective in reducing food intake and body weight |  | high penetrance of the hypothalamus | Appetite was initially suppressed but then rose over time | high brain penetrance |  |  |  | food intake and total body fat mass (summary) (DIO mice [1]; high fat diet induced mice): significant reduction of food intake and total body fat mass; body weight, WT versus HDAC6 KO (HDAC6-KO DIO mice): treatment of wild type mice but not HDAC6 Knockout animals with bavarostat caused weight loss; also recorded: equivalent to vehicle in HDAC-6 KO mice
O=C(CCCCCCNC(=O)c1cnc(N(c2ccccc2)c2ccccc2Cl)nc1)NO [citarinostat] | not effective in reducing body weight | inhibits HDAC6 in other brain regions |  |  | good brain penetrance |  |  |  | HDAC6 inhibition in the hypothalamus (HDAC6 [2]): does not show HDAC6 inhibition in the AGP neurons in the hypothalamus; HDAC6 inhibition in the hypothalamus (HDAC6 [2]; listed as Citarinostat): but not in the hypothalamus
O=C(CCCCCCNC(=O)c1cnc(N(c2ccccc2)c2ccccc2)nc1)NO [ricolinostat] | minimal decrease in bodyweight for the first couple of days without creating any meaningful or significant decreases; also recorded: does not reduce body weight |  | neither of which have high penetrance into the hypothalamus | reduced transitionally during the first 2-3 days of treatment but then rebounded | poor BBB permeability | did not significantly increase STAT3^Tyr705 phosphorylation | did not decrease the bodyweight | had no effect on the food intake | tubulin acetylation (HDAC6 inhibitor activity in cells) (HDAC6 [6]): confirmation of Ricolinstat's HDAC6 inhibitory activity; insulin tolerance test (ITT) (DIO mice [1]; DIO mice): did not improves; hepatic steatosis (H&E liver) (DIO mice [1]; DIO mice, 3 weeks): no decrease in the hepatic steatosis; glucose tolerance test (GTT) (DIO mice [1]; DIO mice, after 1 week): did not improves glucose tolerance; serum insulin levels (DIO mice [1]; DIO mice, after 3 weeks): did not reduce insulin levels; brain/plasma ratio [5]: < 0.01; body weight, leptin after pre-treatment with inhibitor (DIO mice [7]; 3 days pre-treatment, leptin 1 mg/kg i.p., 15 h): did not reduce the body weight; food intake, leptin together with inhibitor (DIO mice [7]; leptin 1 mg/kg i.p., 15 h period): had no effect on the food intake
leptin: peptide hormone that serves as the afferent signal in a negative feedback loop regulating food intake and body weight |  |  |  |  |  | did not significantly increase STAT3^Tyr705 phosphorylation | did not significantly alter their bodyweight; also recorded: did not change their bodyweight | did not significantly change the food intake | 

Source: patent publication US20250213561A1, “SELECTIVE HYPOTHALAMUS PERMEABLE HDAC6 INHIBITORS FOR TREATMENT OF LEPTIN-RESISTANT OBESITY” (The Children’s Medical Center Corporation, priority 2022, published 2025)
